Data published in patent publication US7078222B2, “Microorganism for producing riboflavin and method for producing riboflavin using the same” (CJ Corp., priority 2002, dated 2006).

Experiments:
Bacillus subtilis AS5 = assay: Evaluation of resistance against DL-β-hydroxynorvaline (growth in DL-β-hydroxynorvaline-containing minimal medium); assay type: cell-based; design: key to growth of strain: +: growth; −: not growth; conditions: for growth of strain: 30° C., 5 days
Procedure: (§1) In this example, in order to evaluate resistance to DL-β-hydroxynorvaline, the Bacillus subtilis CJKB0002 (KCCM-10446) of Example 1 and the Bacillus subtilis AS5 as the parent strain were cultured in various concentrations of DL-β-hydroxynorvaline-containing media. In detail, respective strains were inoculated onto DL-β-hydroxynorvaline-containing media as shown in Table 1 and cultured at 30° C. for 5 days. In this case, the concentration of DL-β-hydroxynorvaline ranged from 0 to 350 mg/l.

[1] = test system: Bacillus subtilis CJKB0002 (KCCM-10446); assay: as above; assay type: cell-based; design: key to growth of strain: +: growth; −: not growth; conditions: for growth of strain: 30° C., 5 days
Procedure: as §1

Question: Which results are given for `CCC(O)C(N)C(=O)O` (racemic) [DL-β-hydroxynorvaline]?
Answer: growth of strain (Bacillus subtilis AS5; 50 mg/l DL-β-hydroxynorvaline): +; growth of strain (Bacillus subtilis AS5; 100 mg/l DL-β-hydroxynorvaline): −; growth of strain (Bacillus subtilis AS5; 200 mg/l DL-β-hydroxynorvaline): −; growth of strain (Bacillus subtilis AS5; 250 mg/l DL-β-hydroxynorvaline): −; growth of strain (Bacillus subtilis AS5; 300 mg/l DL-β-hydroxynorvaline): −; growth of strain (Bacillus subtilis AS5; 350 mg/l DL-β-hydroxynorvaline): −; concentration of DL-β-hydroxynorvaline in which the strain cannot grow (Bacillus subtilis AS5; parent strain AS5): more than 50 mg/l; growth of strain ([1]; 250 mg/l DL-β-hydroxynorvaline): +; growth of strain ([1]; 300 mg/l DL-β-hydroxynorvaline): −; growth of strain ([1]; 350 mg/l DL-β-hydroxynorvaline): −; enhanced resistance to threonine analogue compared to Bacillus subtilis AS5 ([1]; CJKB0002 versus AS5): five times; concentration of DL-β-hydroxynorvaline in which the strain can grow ([1]; mutant CJKB0002): ≤ 250 mg/L
